In US20100222423A1, “ASPALATHIN-LIKE DIHYDROCHALCONE, EXTRACTS FROM UNFERMENTED ROOIBOS AND PROCESS FOR PREPARATION” (KNEIPP-WERKE KNEIPP-MITTEL-ZENTRALE GMBH & CO. KG, priority 2007, published 2010):

System: Fischer-344 rats
Test: Tele-Stereo-EEG investigations in the rat (field potentials from frontal cortex, hippocampus, striatum, reticular formation)
Format: in vivo
Conditions: for effect on EEG frequencies in comparison with molecular constituents: approximately equimolar administration; for changes in EEG frequencies / power density compared with saline solution: oral single dose 3 or 6 mg/kg, up to 5 hours after application, n=6 rats
Method: The changes in the EEG (electroencephalography) frequencies was determined after administration of saline solution (control) and the compound of the formula I orally (3 or 6 mg/kg body weight).
The investigations were carried out analogously to the method described by W. Dimpfel (Dimpfel, W., Preclinical database of pharmaco-specific rat EEG fingerprints (Tele-Stereo-EEG). Eur. J. Med. Res. (2003) δ: 199-207) as follows: 4 Bipolar concentric electrodes together with a microplug on a common baseplate were implanted in six male adult Fischer-344 rats (converted day-night) aged 6 months. The plug served for recording a four-channel transmitter for telemetric transmission of the field potentials derived from frontal cortex, hippocampus, striatum and reticular formation. The signals were subjected to a fast Fourier transformation on a computer system (“EEG analysis” software, OS science operating system, “LabTeam” laboratory computer from MediSyst, Linden, Germany) in realtime and the power density spectra were determined in each case over 60 minutes. The division of the spectra into 6 different frequency ranges permitted the determination of pharmaco-specific changes in relation to the initial values, measured in each case before application, within these frequency bands.
Application protocol of the substances: the substances were applied orally 45 minutes after the beginning of the measurements (initial value). Five minutes later, the measurements were started again, analyzed continuously at least over the next 5 hours and collected in 60 minute periods. The test substance was applied in a dose of 3 and 6 mg/kg (compound of the formula I). The experimental series was begun with the administration of saline solution (control), which led to no abnormal change (FIG. 6).
The statistical comparison of the experiments with the results which were measured after administration of saline solution was effected with the aid of multivariant analysis according to Ahrens and Läuter (cf. H. Ahrens, J. Läuter, “Mehrdimensionale Varianzanalyse” [Multidimensional variance analysis]” (1974), Akademie Verlag, Berlin) on the basis of the changes within the individual frequency bands in all regions of the brain as variables.

Compound | effect on EEG frequencies in comparison with molecular constituents (oral, rat) | changes in EEG frequencies / power density compared with saline solution | changes in EEG frequencies / power density compared with saline solution (listed as compound according to the formula I) | pattern of changes in electrical brain activity compared with reference medicaments (oral single dose, rat) | discriminance analysis of EEG frequency changes (four regions of the brain, 6 frequency bands, 24 variables) (rat, compared with medicaments of the database) | crossing of the blood-brain barrier (inferred from central nervous activity) (rat, oral, substance or its metabolites)
O=C(CCc1ccc(O)c(O)c1)c1c(O)cc(O)c([C@@H]2O[C@H](CO)[C@@H](O)[C@H](O)[C@H]2O)c1O [aspalathin] | not by parts of the molecule |  |  |  |  | 
O=C(CCc1ccc(O)c(O)c1)c1c(O)c(C2OC(CO)C(O)C(O)C2O)c(O)c(C2c3c(O)cc(O)cc3OC(c3ccc(O)c(O)c3)C2O)c1O (centres unmarked) [compound according to formula I] | the effect can be achieved | stable changes in the power density in all areas of the brain | dose-dependent changes in the EEG frequencies | corresponded to those after administration of metanicotine, galantamine, tacrine, L-DOPA or nefopam | close to that of galantamine, tacrine and nefopam | evidently cross the blood-brain barrier
catechin [reference compound] | not by parts of the molecule |  |  |  |  | 
